Assay in all cases: growth of human tumour cells (NCI), 48 h
Assay [1] has as its system ACHN.
Assay [2] has as its system HOP-62.
Assay [3] concerns HOP-92.
The subject of assay [4] is HT-29.
The subject of assay [5] is M14.
The subject of assay [6] is Malme-3M.
Assay [7] has as its system NCI-H23.
In assay [8] the test system is NCI-H522.
Assay [9] has as its system OVCAR-5.
The test system of assay [10] is OVCAR-8.
The test system of assay [11] is PC-3.
The test system of assay [12] is SF-268.
Assay [13] deals with SF-539.
Assay [14] deals with SK-MEL-28.
Assay [15] relates to SK-MEL-5.
In assay [16] the test system is SK-OV-3.
For assay [17], the system named is T47D.
In assay [18] the test system is UACC-257.
Assay [19] concerns UACC-62.
Assay [20] deals with UO-31.

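Method: 48-hour compound exposure of cells in 96-well plates, five concentrations, linear interpolation of endpoints. At the GI50, growth is halved.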 Calls of active or inactive are those of the source. Rule as the data show it: active = GI50 up to about 1.1 µM and inactive = higher. A value given as a limit tells only on which side of the number the result lay.

The source of these data is ChEMBL document CHEMBL1201862, “PubChem BioAssay data set” (2004).

Turning to `O=Nc1ccc(O)c2ncccc12`, the GI50 in assay [1] was 3.13 µM (inactive); in assay [2], 2.8 µM (inactive); in [3], 3.09 µM (inactive); in [4], 15.3 µM (inactive); in assay [5], 6.03 µM (inactive); in assay [6] it was 11.8 µM (inactive). In addition, the GI50 in assay [7] was 0.762 µM (active); in [8], 1.43 µM (inactive); in assay [9], 15.7 µM (inactive); in assay [10] it was 3.47 µM (inactive); in [11] it was 14.7 µM (inactive); in assay [12], 3.68 µM (inactive). For the same molecule, the GI50 is 1.44 µM (inactive) in assay [13]; 4.34 µM (inactive) in assay [14]; 7.21 µM (inactive) in assay [15]; 12.6 µM (inactive) in [16]; 7.53 µM (inactive) in assay [17]; 6.37 µM (inactive) in assay [18]. In addition, the GI50 is 0.875 µM (active) in [19] and 2.98 µM (inactive) in assay [20].
Consider `BrCC[N+]12CC[N+](CCBr)(CC1)C2`, for which the GI50 in assay [1] was > 100 µM (inactive); in [2] it was 39.1 µM (inactive); in assay [3], > 100 µM (inactive); in assay [4], > 100 µM (inactive); in [5], > 100 µM (inactive); in [6], > 100 µM (inactive). Further, the GI50 in assay [7], in assay [8], in assay [9], in assay [10], in [11] and in [12] was > 100 µM (inactive) each time. Moreover, the GI50 in assay [13], in [14], in assay [15], in assay [16], in assay [17] and in assay [18] was > 100 µM (inactive) throughout. For the same molecule, the GI50 in [19] and in [20] was > 100 µM (inactive) in each case.
`COc1ccc(C2=NN(C(=O)c3ccc(Cl)cc3)C(O)(c3cc(F)c(Cl)cc3Cl)C2)cc1` (stereo not given): the GI50 in [1] was > 100 µM (inactive); in assay [2] it was > 100 µM (inactive); in assay [3] it was > 100 µM (inactive); in assay [4] it was 17.3 µM (inactive); in assay [5] it was 44.8 µM (inactive); in [6], > 100 µM (inactive). The GI50 was 37.6 µM (inactive) in assay [7]; > 100 µM (inactive) in [8]; > 100 µM (inactive) in assay [9]; > 100 µM (inactive) in assay [10]; 61.9 µM (inactive) in assay [11]; > 100 µM (inactive) in assay [12]. In addition, the GI50 in [13] was > 100 µM (inactive); in assay [14], > 100 µM (inactive); in assay [15], > 100 µM (inactive); in assay [16], > 100 µM (inactive); in assay [17], 57.7 µM (inactive); in [18], 49.9 µM (inactive). Moreover, the GI50 in [19] is > 100 µM (inactive); in assay [20] it was 16.9 µM (inactive).
For `Cn1c(=O)n(CC(Br)CBr)c(=O)n(CC(Br)CBr)c1=O` (stereo not given), the GI50 is 36.6 µM (inactive) in [1]; > 100 µM (inactive) in assay [2]; > 100 µM (inactive) in assay [3]; 21.7 µM (inactive) in assay [4]; 24.3 µM (inactive) in assay [5]; > 100 µM (inactive) in assay [6]. Further, the GI50 is 36 µM (inactive) in assay [7]; 28 µM (inactive) in [8]; 43.9 µM (inactive) in assay [9]; 58.7 µM (inactive) in [10]; 31.8 µM (inactive) in [11]; 74.6 µM (inactive) in assay [12]. The GI50 in assay [13] is 25.3 µM (inactive); in [14] it was 39.7 µM (inactive); in assay [15] it was 16.5 µM (inactive); in assay [16] it was > 100 µM (inactive); in [17], 38.7 µM (inactive); in assay [18] it was 31.8 µM (inactive). For the same molecule, the results for the GI50 in [19] and in [20] were 23.3 µM (inactive) and 25.5 µM (inactive), respectively.
As to `CN(C)CCCC12CCCCC1=Nc1ccccc12` (stereo not given), the GI50 in assay [1], in assay [2], in assay [3], in assay [4], in assay [5] and in assay [6] was > 100 µM (inactive) in each case. In addition, the GI50 in assay [7] is > 100 µM (inactive); in assay [8] it was 97.7 µM (inactive); in assay [9] it was > 100 µM (inactive); in assay [10], > 100 µM (inactive); in assay [11], > 100 µM (inactive); in assay [12] it was > 100 µM (inactive). For the same molecule, the GI50 in assay [13], in assay [14], in [15], in [16], in assay [17] and in assay [18] was > 100 µM (inactive) in each case. For the same molecule, the GI50 in assay [19] and in assay [20] was > 100 µM (inactive) throughout.
In the case of `CC(=O)NC(CCC(=O)C=[N+]=[N-])C(=O)O` (stereo not given), the GI50 in [1], in assay [2], in assay [3], in assay [4], in assay [5] and in assay [6] was > 100 µM (inactive) throughout. In addition, the GI50 in assay [7], in assay [8], in assay [9], in [10], in assay [11] and in [12] was > 100 µM (inactive) throughout. Further, the GI50 in assay [13], in assay [14], in assay [15], in [16], in [17] and in assay [18] was > 100 µM (inactive) throughout. The GI50 in assay [19] and in [20] was > 100 µM (inactive) in each case.
For the molecule `SC1=Nc2ccccc2-c2nc(-c3cccc(Cl)c3)cc(-c3ccccc3)c2C1`, the GI50 in [1] is 0.811 µM (active); in assay [2], 1.86 µM (inactive); in assay [3], 1.09 µM (active); in [4], 2.38 µM (inactive); in [5], 4.61 µM (inactive); in assay [6], 4.35 µM (inactive). Further, the GI50 in [7] was 5.07 µM (inactive); in assay [8], 2.06 µM (inactive); in assay [9], 5.77 µM (inactive); in [10] it was 1.07 µM (active); in [11], 7.57 µM (inactive); in assay [12], 3.79 µM (inactive). The GI50 in assay [13] is 1.69 µM (inactive); in assay [14], 9.12 µM (inactive); in assay [15] it was 26.8 µM (inactive); in [16], 2.11 µM (inactive); in assay [17], 2.19 µM (inactive); in assay [18] it was 5.9 µM (inactive). The GI50 was 1.61 µM (inactive) in [19] and 1.93 µM (inactive) in [20].
Take `O=c1c(C(c2ccc3ccccc3c2)c2c(O)oc3ccccc3c2=O)c(O)oc2ccccc12`: the GI50 in assay [1] is 20.6 µM (inactive); in [2] it was 39.3 µM (inactive); in [3], 29.2 µM (inactive); in assay [4] it was 18.5 µM (inactive); in [5], 25.9 µM (inactive); in assay [6], 17.7 µM (inactive). Further, the GI50 in assay [7] is 23.2 µM (inactive); in [8] it was 17.5 µM (inactive); in [9] it was 28.1 µM (inactive); in [10], 16.1 µM (inactive); in [11], 34.6 µM (inactive); in assay [12], 21.4 µM (inactive). Besides, the GI50 in [13] is 25.5 µM (inactive); in assay [14], 28.6 µM (inactive); in assay [15], 22.6 µM (inactive); in assay [16], 50.9 µM (inactive); in assay [17], 39.1 µM (inactive); in assay [18] it was 51.5 µM (inactive). In addition, the GI50 in assay [19] was 38.1 µM (inactive); in assay [20], 17 µM (inactive).
